In patent publication US11084852B2, “Ubiquitin interacting motif peptides as therapeutics” (OKLAHOMA MEDICAL RESEARCH FOUNDATION, priority 2015, dated 2021):
No end group written: not given here.

Columns and labels:
[1] = tested on: ER stress; test: ER stress and inflammation after IP3R1 downregulation; assay type: cell-based
From the text: FIGS. 22A-D. Downregulation of IP3R1 by epsins augments ER stress-mediated inflammation in Endothelium. (FIG. 22A) Deletion of IP3R1 auguments ER stress mediated by athero-prone substances. (FIG. 22B) Inhibition of ER stress by 4-PBA protected athero-prone substances mediated ER stress due to loss of IP3R1. (FIG. 22C) Loss of epsins auguments NF-kB signaling. (FIG. 22D) NF-kB augmentation can be prevented by ER stress inhibitor 4-PBA.

[2] = HFD-induced obesity model; assay type: in vivo; conditions: i.p., mice fed HFD
From the text: FIGS. 33A-C. […] (FIG. 33A) Male and (FIG. 33B) Female mice, n=8 in each group; P<0.001. (FIG. 33C) Representative image of PBS or AP-UIM peptide administration for 3 months.
The inventors have tested a UIM peptide (AP-UIM) in HFD-induced obesity model.

## O=C(O)CCCc1ccccc1 [4-PBA]
[1]
  ER stress and inflammation: inhibits ER stress and inflammation

## AP-UIM: Antennapedia (penetratin) conjugated to the N-terminus of the epsin UIM peptide, SEQ ID NO: 40 (RQIKIWFQNRRMKWKKSGEEELQLQLALAMSKEE; not fully specified (some residues))
[2]
  body weight gain: significantly attenuated body weight gain
